Measured values as given in patent US8623896B2, “Insecticidal compounds” (Syngenta Crop Protection, LLC, priority 2007, dated 2014).

What was measured:
Type in all cases: in vivo
Conditions in all cases: same protocol, 200 ppm
[1] = test system: Heliothis virescens (Tobacco Budworm); assay: Heliothis virescens egg test on artificial diet
Experimental: Eggs (0-24 h old) were placed in 24-well microtiter plate on artificial diet and treated with test solutions at an application rate of 200 ppm (concentration in well 18 ppm) by pipetting. After an incubation period of 4 days, samples were checked for egg mortality, larval mortality, and growth regulation.

[2] = test system: Spodoptera littoralis (Egyptian Cotton Leafworm); assay: Spodoptera littoralis cotton leaf disc spray test
Description: Cotton leaf discs were placed on agar in a 24-well microtiter plate and sprayed with test solutions at an application rate of 200 ppm. After drying, the leaf discs were infested with 5 L1 larvae. The samples were checked for mortality, feeding behavior, and growth regulation 3 days after treatment (DAT).

[3] = test system: Plutella xylostella (Diamond Back Moth); assay: Plutella xylostella larvae test on artificial diet
Experimental: (§1) 24-well microtiter plate (MTP) with artificial diet was treated with test solutions at an application rate of 200 ppm (concentration in well 18 ppm) by pipetting. After drying, the MTP's were infested with L2 larvae (7-12 per well). After an incubation period of 6 days, samples were checked for larval mortality and growth regulation.

[4] = test system: Thrips tabaci (Onion Trips); assay: Thrips tabaci sunflower leaf disc spray test
[5] = test system: Tetranychus urticae (Two-Spotted Spider Mite); assay: Tetranychus urticae bean leaf disc spray test
Description: Bean leaf discs on agar in 24-well microtiter plates were sprayed with test solutions at an application rate of 200 ppm. After drying, the leaf discs are infested with mite populations of mixed ages. 8 days later, discs are checked for egg mortality, larval mortality, and adult mortality.

[6] = test system: Diabrotica balteata (Corn Root Worm); assay: Diabrotica balteata larvae test on artificial diet
Experimental: as §1, with “A 24-well” for “24-well”, “(6-10” for “(7-12”, “5” for “6”

Measured: effect on mortality, feeding behavior, or growth regulation

CC1(NC(=O)c2ccc(C3=NOC(c4cc(Cl)cc(Cl)c4)(C(F)(F)F)C3)cc2C#N)CSC1 (stereo not drawn) [A18]
little or no effect: [1] | [2] | [3] | [4] | [5] | [6]

N#Cc1cc(C2=NOC(c3cc(Cl)cc(Cl)c3)(C(F)(F)F)C2)ccc1C(=O)NC1CSC1 (stereo not drawn) [A19]
little or no effect: [1] | [2] | [3] | [4] | [5] | [6]

Cc1cc(C2=NOC(c3cc(Cl)cc(Cl)c3)(C(F)(F)F)C2)ccc1C(=O)NCC1CCN1Cc1ccccc1 (stereo not drawn) [B2]
little or no effect: [1] | [2] | [3] | [4] | [5] | [6]
